Values quoted from earlier work in patent US11647710B2, “Method for preparation of soybean leaf having high content of isoflavone derivative in dark condition and soybean leaf having high content of isoflavone derivative prepared thereby” (INDUSTRY-ACADEMIC COOPERATION FOUNDATION GYEONGSANG …, priority 2019, dated 2023).

Molecular target: ER-beta (estrogen receptor beta) (Rattus norvegicus, UniProt Q62986)
Details: Endocrinology 1997, 863; cited from earlier work

Chain of ER-beta (estrogen receptor beta) (Q62986 whole entry): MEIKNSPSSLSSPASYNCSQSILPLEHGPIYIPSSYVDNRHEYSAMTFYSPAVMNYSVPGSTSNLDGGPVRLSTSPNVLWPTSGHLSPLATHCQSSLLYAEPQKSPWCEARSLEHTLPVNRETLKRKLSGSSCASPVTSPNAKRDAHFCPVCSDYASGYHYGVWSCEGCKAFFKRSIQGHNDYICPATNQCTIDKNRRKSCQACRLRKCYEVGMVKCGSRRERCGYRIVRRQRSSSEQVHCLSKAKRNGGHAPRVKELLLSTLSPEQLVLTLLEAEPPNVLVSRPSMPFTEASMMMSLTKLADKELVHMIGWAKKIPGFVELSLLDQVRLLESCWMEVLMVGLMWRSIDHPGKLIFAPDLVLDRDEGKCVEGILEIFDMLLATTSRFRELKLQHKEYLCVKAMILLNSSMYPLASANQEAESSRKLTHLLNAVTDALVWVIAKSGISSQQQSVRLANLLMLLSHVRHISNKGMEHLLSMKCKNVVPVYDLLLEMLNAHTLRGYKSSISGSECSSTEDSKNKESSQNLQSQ

Q: For `O=c1c(-c2ccc(O)cc2)coc2cc(O)ccc12` [daidzein], which “affinity for ER-beta” value is on record?
A: Its value is “high affinity”.
